The test system of data set [1] is U-CH1 chordoma cell line. The data set is described as follows: Cell viability assay (alamarBlue, 72 h), U-CH1. Type of data set: cell-based, human. The note with it: n = 4, 72 h. The essentials: (§1)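 Cells grown in 4:1 IMDM:RPMI with 10% FBS on gel-coated flasks, dosed in quadruplicate 24 h after seeding in 384-well plates.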
(In general: Resazurin is reduced to fluorescent resorufin, in cell work by metabolically active cells.)

Data set [2] relates to U-CH2 chordoma cell line. Description: Cell viability assay (alamarBlue, 72 h), U-CH2. In kind it is cell-based, human. Put shortly: as §1
For data set [3], the system named is CH22 patient-derived chordoma cell line. Description: Cell viability assay (alamarBlue, 72 h), CH22. In kind it is cell-based, human. To be noted: n = 4, 72 h. Put shortly: (§2)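 Patient-derived chordoma lines and WS1 fibroblasts seeded in 384-well plates, dosed in quadruplicate 24 h after plating.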
Data set [4] deals with UM-Chor1 patient-derived chordoma cell line. Description: Cell viability assay (alamarBlue, 72 h), UM-Chor1. In kind it is cell-based, human. The note with it: n = 4, 72 h. The essentials: as §2
In data set [5] the test system is U-CH12 patient-derived chordoma cell line. The data set is described as follows: Cell viability assay (alamarBlue, 72 h), U-CH12. To be noted: n = 4, 72 h. In kind it is cell-based, human. Put shortly:
as §2

The subject of data set [6] is U-CH7 patient-derived chordoma cell line. Description: Cell viability assay (alamarBlue, 72 h), U-CH7. In kind it is cell-based, human. To be noted: n = 4, 72 h. The essentials: as §2
Data set [7] relates to WS1 human fibroblast cell line. Description: Cell viability assay, WS1 toxicity control. In kind it is cell-based. The note with it: n = 4, nonspecific toxicity control. Put shortly:
as §2

The test system of data set [8] is HL60 cells. The data set is described as follows: AsedaSciences SYSTEMETRIC Cell Health Screen (flow cytometry toxicity profiling). The note with it: HL60, 4 h, 5 nM–100 µM; for CC: Cell Cycle score / CM: Cell morphology score / CMI: Cell membrane integrity score / GSH: Glutathione score / MMP: Mitochondrial membrane depolarization score / NMI1: Nuclear membrane integrity 1 score / NMI2: Nuclear membrane integrity 2 score / ROS: Reactive superoxide species score: probability 0–1, n = 2; for CHI: Cell Health Index: probability (0–1) of high-risk class, n = 2. Put shortly:
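HL60 cells (100,000 per well) exposed 4 h at 37 °C, 5% CO2 to 10-step 3× dilutions (5 nM–100 µM), in duplicate. Cells then stained with mitochondrial and cell-stress reporter dyes and read by ungated flow cytometry over twelve parameters. Cell Health Index and eight endpoint scores come from an ML classifier trained on 300 high/low-risk compounds.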

The test system of data set [9] is U-CH1 chordoma cell line. The note with it: previously reported, Figure 1; cited from earlier work.
Data set [10] relates to U-CH2 chordoma cell line. To be noted: previously reported, Figure 1; cited from earlier work.
Data set [11] deals with EGFR (Homo sapiens, UniProt P00533). The data set is described as follows: ProQinase in-cell EGFR assay (EGFR phosphorylation in A431 cells). To be noted: ProQinase in-cell EGFR assay, A431 cells, n = 1. In kind it is cell-based. Set-up: This cell line endogenously expresses a high level of EGFR; endogenous in cells; host or cells: A431. The text has this:
In addition, we ran an EGFR in-cell target engagement assay, measuring in-cell EGFR phosphorylation, using the human epidermoid carcinoma cell line A431. This cell line endogenously expresses a high level of EGFR, and stimulation of these cells with human epidermal growth factor (EGF) results in receptor tyrosine autophosphorylation.

[12] abbreviates: Homo sapiens, UCH2, n = 4, 72 h.

The values below come from publication PMC9329436, “Optimization of the 4-anilinoquin(az)oline scaffold as epidermal growth factor receptor (EGFR) inhibitors for chordoma utilizing a toxicology profiling assay platform” (Scientific Reports, 2022).

Values joined by “and” are separate entries in the source; they are usually repeats but may differ in a detail not shown here. Equal entries are not always repeated. Where two headings read alike, the source gives them in different places.

Sequence of EGFR (P00533 25-1210): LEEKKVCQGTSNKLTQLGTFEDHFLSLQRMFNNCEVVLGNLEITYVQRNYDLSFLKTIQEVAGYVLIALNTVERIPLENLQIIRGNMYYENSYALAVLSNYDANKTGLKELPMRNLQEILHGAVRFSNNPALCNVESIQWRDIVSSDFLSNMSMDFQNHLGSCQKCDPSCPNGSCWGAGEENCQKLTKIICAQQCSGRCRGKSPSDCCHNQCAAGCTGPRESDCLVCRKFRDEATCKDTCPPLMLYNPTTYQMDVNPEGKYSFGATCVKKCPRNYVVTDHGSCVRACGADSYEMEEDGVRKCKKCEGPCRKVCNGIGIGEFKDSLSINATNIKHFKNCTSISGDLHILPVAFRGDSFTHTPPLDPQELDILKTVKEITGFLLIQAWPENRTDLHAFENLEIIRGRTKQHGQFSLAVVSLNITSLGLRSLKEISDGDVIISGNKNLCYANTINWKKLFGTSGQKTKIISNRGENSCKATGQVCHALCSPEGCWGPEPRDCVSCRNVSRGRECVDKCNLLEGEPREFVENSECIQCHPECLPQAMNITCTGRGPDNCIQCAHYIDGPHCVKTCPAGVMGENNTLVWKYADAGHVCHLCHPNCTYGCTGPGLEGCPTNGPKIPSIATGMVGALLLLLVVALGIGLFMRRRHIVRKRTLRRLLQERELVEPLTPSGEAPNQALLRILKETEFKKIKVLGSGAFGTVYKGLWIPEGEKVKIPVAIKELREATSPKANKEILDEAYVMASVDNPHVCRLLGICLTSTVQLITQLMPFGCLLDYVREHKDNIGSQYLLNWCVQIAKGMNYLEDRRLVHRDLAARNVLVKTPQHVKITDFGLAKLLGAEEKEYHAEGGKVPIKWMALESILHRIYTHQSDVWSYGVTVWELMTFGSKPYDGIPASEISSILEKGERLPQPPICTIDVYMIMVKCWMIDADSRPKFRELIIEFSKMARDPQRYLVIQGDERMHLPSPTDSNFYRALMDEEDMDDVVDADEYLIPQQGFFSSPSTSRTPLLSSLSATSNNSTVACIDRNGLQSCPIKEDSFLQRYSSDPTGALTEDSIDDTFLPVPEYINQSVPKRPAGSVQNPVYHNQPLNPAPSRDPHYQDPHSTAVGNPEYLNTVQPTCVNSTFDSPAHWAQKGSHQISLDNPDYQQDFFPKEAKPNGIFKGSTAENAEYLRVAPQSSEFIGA

For `C#Cc1cccc(Nc2ncnc3cc(OC)c(OC)cc23)c1` [Compound 1, N-(3-ethynylphenyl)-6,7-dimethoxyquinazolin-4-amine], the IC50 is less than 1 µM in data set [1] (Homo sapiens, UCH1, 72 h); 0.63 µM in data set [1]; 66 µM in data set [2] (setting [12]); more than 100 µM in [3] (Homo sapiens); 28 µM in data set [4] (Homo sapiens); more than 100 µM in data set [5] (Homo sapiens). Also, the IC50 in data set [6] (Homo sapiens) is 23 µM; in data set [7] (Homo sapiens, Fibroblast) it was 15 µM; in data set [9] it was 0.92 µM; in data set [10], more than 50 µM; in data set [11], 0.019 µM. The “CC: Cell Cycle score” value in data set [8] is reported as 0.086. The “CM: Cell morphology score” value in data set [8] was 0.85. The “CMI: Cell membrane integrity score” value in data set [8] was determined as 0.11. For the same compound, the “GSH: Glutathione score” value in [8] is reported as 0.18. Moreover, the “MMP: Mitochondrial membrane depolarization score” value in data set [8] is reported as 0.39. Moreover, the “NMI1: Nuclear membrane integrity 1 score” value in [8] was 0.47. Moreover, the “NMI2: Nuclear membrane integrity 2 score” value in data set [8] stood at 0.41. The “ROS: Reactive superoxide species score” value in data set [8] turned out to be 0.32. Further, the “CHI: Cell Health Index” value in data set [8] was 0.41.
`CN(C)C/C=C/C(=O)Nc1cc2c(Nc3ccc(F)c(Cl)c3)ncnc2cc1O[C@H]1CCOC1` [Afatinib, reference compound]: in [8], the “CC: Cell Cycle score” value came to 0.93, the “CM: Cell morphology score” value worked out at 1.00, the “CMI: Cell membrane integrity score” value is reported as 1.00 and the “GSH: Glutathione score” value is reported as 1.00. In addition, in data set [8], the “MMP: Mitochondrial membrane depolarization score” value is recorded as 1.00, the “NMI1: Nuclear membrane integrity 1 score” value was determined as 1.00, the “NMI2: Nuclear membrane integrity 2 score” value is on record as 0.99 and the “ROS: Reactive superoxide species score” value is recorded as 1.00. The “CHI: Cell Health Index” value in data set [8] amounted to 0.92. Besides, in data set [9], the IC50 was 0.1 µM. Besides, in [10], the IC50 is 6.4 µM.
Regarding `C#Cc1ccc(F)c(Nc2ncnc3cc(OC)c(OC)cc23)c1` [Compound 42], the IC50 in data set [1] stood at 6.7 µM. This compound displayed an IC50 in data set [2] (n = 4, 72 h) of 20 µM. This compound gave an IC50 in data set [3] of 4.2 µM. Moreover, in [4], the IC50 was more than 100 µM. The compound further gave an IC50 in data set [5] of more than 100 µM. In data set [6], this compound gave an IC50 of more than 100 µM. This compound also returned an IC50 in [7] of 20 µM. For the same compound, in data set [8], the “CC: Cell Cycle score” value stood at 0.67, the “CM: Cell morphology score” value is 0.31, the “CMI: Cell membrane integrity score” value is 0.78 and the “GSH: Glutathione score” value was 0.25. Also, in [8], the “MMP: Mitochondrial membrane depolarization score” value worked out at 0.89, the “NMI1: Nuclear membrane integrity 1 score” value was found to be 0.13, the “NMI2: Nuclear membrane integrity 2 score” value is listed as 0.85 and the “ROS: Reactive superoxide species score” value was 0.63. The “CHI: Cell Health Index” value in data set [8] is recorded as 0.48. The compound further displayed an IC50 in data set [11] of 0.29 µM.
As to `C#Cc1cccc(Nc2ncnc3ccc(I)cc23)c1` [Compound 9, N-(3-ethynylphenyl)-6-iodoquinazolin-4-amine], the IC50 in data set [1] (Homo sapiens, UCH1, 72 h) is 8.7 µM; in [2] (setting [12]), more than 100 µM; in data set [3] (Homo sapiens) it was more than 100 µM; in data set [4] (Homo sapiens), more than 100 µM; in data set [5] (Homo sapiens), more than 100 µM; in data set [6] (Homo sapiens), more than 100 µM. In addition, the IC50 in data set [7] (Homo sapiens, Fibroblast) was 98 µM; in [11], 0.83 µM. The “CC: Cell Cycle score” value in [8] was 0.087 and 0.071. Also, the “CM: Cell morphology score” value in data set [8] is reported as 0.0063. Further, the “GSH: Glutathione score” value in [8] is 0.050 and 0.029. Further, the “NMI1: Nuclear membrane integrity 1 score” value in data set [8] was 0.13 and 0.069. Also, the “ROS: Reactive superoxide species score” value in data set [8] was 0.083 and 0.088. Besides, the “CHI: Cell Health Index” value in data set [8] is listed as 0.21.
Regarding `C#Cc1cccc(Nc2ncnc3cc(I)ccc23)c1` [Compound 15], in data set [1], the IC50 is 17 µM. Also, the IC50 in [2] (n = 4, 72 h) was more than 100 µM. Moreover, in data set [3], the IC50 is more than 100 µM. In addition, in [4], the IC50 was more than 100 µM. The concentration for half-maximal inhibition (IC50) in [5] is more than 100 µM. The compound further displayed an IC50 in data set [6] of more than 100 µM. In data set [7], the IC50 was more than 100 µM. Also, in data set [8], the “CC: Cell Cycle score” value turned out to be 0.95, the “CM: Cell morphology score” value turned out to be 1.00, the “CMI: Cell membrane integrity score” value was found to be 1.00 and the “GSH: Glutathione score” value is on record as 0.98. For the same compound, in [8], the “MMP: Mitochondrial membrane depolarization score” value is listed as 0.99, the “NMI1: Nuclear membrane integrity 1 score” value is recorded as 0.21, the “NMI2: Nuclear membrane integrity 2 score” value amounted to 0.94 and the “ROS: Reactive superoxide species score” value is on record as 1.00. In data set [8], the “CHI: Cell Health Index” value is 0.77. The same compound registered an IC50 in data set [11] of 2.8 µM.
Compound `C#Cc1cccc(Nc2ncnc3cc(C#N)ccc23)c1` [Compound 17] came in with an IC50 in data set [1] of 65 µM. In [2] (n = 4, 72 h), this compound had an IC50 of more than 100 µM. In data set [3], this compound registered an IC50 of more than 100 µM. For the same compound, the IC50 in data set [4] is more than 100 µM. The same compound returned an IC50 in data set [5] of more than 100 µM. This compound gave an IC50 in [6] of more than 100 µM. Also, the IC50 in data set [7] is more than 100 µM. For the same compound, in [8], the “CC: Cell Cycle score” value came out at 0.25, the “CM: Cell morphology score” value is reported as 0.43, the “CMI: Cell membrane integrity score” value is 0.052 and the “GSH: Glutathione score” value was determined as 0.04. Besides, in [8], the “MMP: Mitochondrial membrane depolarization score” value came out at 0.10, the “NMI1: Nuclear membrane integrity 1 score” value was determined as 0.37, the “NMI2: Nuclear membrane integrity 2 score” value was 0.10 and the “ROS: Reactive superoxide species score” value is reported as 0.41. For the same compound, the “CHI: Cell Health Index” value in data set [8] is 0.45. The same compound came in with an IC50 in data set [11] of more than 20 µM.

In general, IC50 refers to the point on the concentration scale where inhibition reaches its midpoint.
